Measurements reported in patent US4661297A, “Basic ethers of 7-oxo-7H-benzo(c) fluorene and a process for their production” (SPOFA, spojene podniky pro zdravotnickou vyrobu, priority 1980, dated 1987).
Numbered stars: 1 amine (or outer) side, 2 acyl side, 3 side chain; on linkers, the order of the positions; unused ones are H or OH. Bridge positions count the residues as written; N and C are the ends. Square brackets hold non-standard residues; d marks the D form. Peptide text beside a SMILES is read from it. I, II: the chains in the order shown. Actinocin(9to1) = Cc1c2oc3c(C)ccc(C(=O)[*:1])c3nc-2c(C(=O)[*:2])c(N)c1=O; NMeV = CN[C@H](C(=O)O)C(C)C; Sar = CNCC(=O)O

System: DNA, RNA and protein biosynthesis
Assay: Effect on DNA, RNA and protein biosynthesis (substrate incorporation)
Type: cell-based
Text: Thus, by way of exemplification, the IC^50 values (inhibitory concentration which lowered the initial rate of ^14 C incorporation to 50% of control) are shown in Table VI, below (Yoshida's Tumor, (U-^14 C) amino acid mixture)
The foregoing data clearly indicate that the compounds of the invention are potent inhibitors of DNA, RNA and protein biosynthesis. This is of significance because the suppression of tumor cells in a host is attained by inhibition of the biosynthesis of DNA, RNA and proteins.

Cc1c2oc3c(C)ccc(C(=O)N[C@@H]4C(=O)N[C@H](C(C)C)C(=O)N5CCC[C@H]5C(=O)N(C)CC(=O)N(C)[C@@H](C(C)C)C(=O)O[C@@H]4C)c3nc-2c(C(=O)N[C@@H]2C(=O)N[C@H](C(C)C)C(=O)N3CCC[C@H]3C(=O)N(C)CC(=O)N(C)[C@@H](C(C)C)C(=O)O[C@@H]2C)c(N)c1=O [Actinomycin D] (I: T[dV]P[Sar][NMeV] / II: T[dV]P[Sar][NMeV]; ester I:1-I:C, II:1-II:C; linker I:N-II:N via Actinocin(9to1)) was tested, and the IC50 (substrate (6-3H)uridine) was 1.7 µg/mL.

Compound O=NN(CCCl)C(=O)NC1CCCCC1 [CCNU] has an IC50 (substrate L-(U-14C)amino-acid mixture) of 45 µM.

Work on Nc1ccn([C@@H]2O[C@H](CO)[C@@H](O)[C@@H]2O)c(=O)n1 [Cytosine arabinoside] yielded an IC50 (substrate (thymine-U-14C)-thymidine) of 2 µM and an IC50 (substrate L-(U-14)amino-acid) of 430 µM.
